{
  "source": "patent US6413969B1",
  "about": "“Gatifloxacin pentahydrate” (Bristol-Myers Squibb Company, priority 2000, dated 2002)",
  "key": {"[1]": {"system": "broad spectrum of microorganisms including antibiotic-resistant strains of Streptococcus Pneumoniae", "conditions": "cited from earlier work"}, "infections": {"system": "infections", "conditions": "cited from earlier work"}, "[2]": {"conditions": "parenterally and via oral administration; cited from earlier work"}, "[3]": {"test": "aqueous solubility of the crystalline hydrates", "assay_type": "physicochemical", "conditions": "for aqueous solubility (rank among the three major hydrates): water, 25° C., sesquihydrate, pentahydrate, hexahydrate compared", "text": "(§1) The crystal structures and ideal water content of seven of these forms were established through single crystal x-ray analyses. Each form gives rise to unique and characteristic single crystal and powder x-ray diffraction. The kinetic and thermodynamic relationships among the three major hydrates were investigated leading to the understanding of their stability order in water as a function of temperature and their interconversion relationship. […] The implications of these findings were very significant in the discovery and development of highly homogeneous gatifloxacin pentahydrate in accordance with the present invention. Further, these findings made it evident that very strict process controls were necessary in the production of crystalline gatifloxacin and dosage forms containing it and that it was necessary to obtain crystalline gatifloxacin pentahydrate in high homogeneity vs. the other crystalline forms in order to realize the advantageous properties thereof. By high homogeneity is meant that crystalline gatifloxacin pentahydrate must contain no detectable levels of the other crystalline forms thereof as determined by powder x-ray diffraction technique."}, "[4]": {"test": "stability studies under stressed conditions of temperature and humidity", "assay_type": "physicochemical", "text": "It has been found in accordance with the present invention that the advantageous stability and solubility properties of the pentahydrate of gatifloxacin can be applied to the formulation of pharmaceutical dosage forms. While the pentahydrate of gatifloxacin can be utilized to prepare tablets by wet granulation, it can also be formulated in accordance with the present invention into stable pharmaceutical solid dosage forms by conventional dry granulation. […] Such formulations will include conventional inert ingredients such as binders, excipients, disintegrants, and the like. Examples of such agents include various starch derivatives such as pregelatinized starch, hydroxypropyl cellulose microcrystalline cellulose, sodium starch glycolate, magnesium stearate, lactose, mannitol and the like."}, "[5]": {"test": "physical stability / interconversion of crystalline forms in water", "assay_type": "physicochemical", "text": "as §1"}, "[6]": {"conditions": "cited from earlier work"}},
  "data": [
    {"smiles": "COc1c(N2CCNC(C)C2)c(F)cc2c(=O)c(C(=O)O)cn(C3CC3)c12", "note": "(stereo not drawn) [Gatifloxacin, 1-cyclopropyl-6-fluoro-1,4-dihydro-8-methoxy-7-(3-methyl-1piperizinyl)-4-oxo-3-quinolinecarboxylic acid]", "values": [
      {"measurement": "effectiveness against microorganisms", "setting": "[1]", "result": "effective"},
      {"measurement": "overall tolerability", "setting": "infections; in vivo", "result": "excellent overall tolerability"},
      {"measurement": "safety and efficacy in treatment of infections", "setting": "infections; individuals with impaired liver function", "result": "safe and efficacious"},
      {"measurement": "efficacy", "setting": "[2]", "result": "excellent efficacy"}
    ]},
    {"smiles": "COc1c(N2CCNC(C)C2)c(F)cc2c(=O)c(C(=O)O)cn(C3CC3)c12", "note": "(stereo not drawn) [gatifloxacin pentahydrate, 1cyclopropyl-6-fluoro-1,4-dihydro-8-methoxy-7-(3-methyl-1-piperazinyl)-4-oxo-3-quinolinecarboxylic acid]", "values": [
      {"measurement": "solubility compared with the metastable sesquihydrate", "setting": "[3]; aqueous dosage forms", "result": "less soluble"},
      {"measurement": "aqueous solubility (rank among the three major hydrates)", "setting": "[3]; listed as pentahydrate", "result": "lowest"},
      {"measurement": "form change or other degradation", "setting": "[4]", "result": "no evidence of form change or other degradation"},
      {"measurement": "physical stability of the crystalline form", "setting": "[5]; compared with the other crystalline forms, conversion over time", "result": "most physically stable form"}
    ]},
    {"smiles": "COc1c(N2CCNC(C)C2)c(F)cc2c(=O)c(C(=O)O)cn(C3CC3)c12", "note": "(stereo not drawn) [hemihydrate]", "values": [
      {"measurement": "tendency to form higher hydrates", "setting": "[5]; in the presence of water", "result": "definite tendency to form higher hydrates"}
    ]},
    {"smiles": "COc1c(N2CCNC(C)C2)c(F)cc2c(=O)c(C(=O)O)cn(C3CC3)c12", "note": "(stereo not drawn) [sesquihydrate]", "values": [
      {"measurement": "aqueous solubility (rank among the three major hydrates)", "setting": "[3]", "result": "highest"},
      {"measurement": "disintegration and dissolution rates of tablets in comparison to the hemihydrate", "setting": "[6]; tablets made from the crystalline form", "result": "superior disintegration and dissolution rates"},
      {"measurement": "stability in comparison to the hemihydrate", "setting": "[6]; varying conditions of humidity", "result": "enhanced stability"}
    ]}
  ]
}
